The values below come from patent US5158942A, “Process of using phospholipid derivatives to inhibit multiplication of the human immunodeficiency virus” (Boehringer Mannheim GmbH, priority 1989, dated 1992).

≈ marks a conversion by molar mass, not a printed value.

In one series the test system is HIV. Nature of the series: Inhibition of HIV replication in HIV infected human T-lymphoma cells or human fetal lung cells; amount of virus determined by new infection of human fetal lung cells. Type of series: cell-based. The conditions noted are these: Human immunodeficiency virus 1, readout: new infection of human fetal lung cells, read-out: IC50-value (concentration which results in an inhibition of the replication of 50%). The method, then:
HIV infected human T-lymphoma cells or human fetal lung cells were treated with the inventive compound by using different concentration ranges of the test compound. The amount of the viruses was then determined by way of new infection of human fetal lung cells. The decrease of the resulting positive HIV-infected cells was regarded as a measure for the antiviral activity of the compound tested.
The following table gives the corresponding concentration, which results in an inhibition of the replication of 50% (IC50 -value): […]
With `CCCCCCCCCCCCOC(COP(=O)([O-])OCC[N+](C)(C)C)CSCCCCCCCCCCCC` (stereo not shown) [Example 4, 3-Dodecylmercapto-2-dodecyloxypropyl-1-phosphoric acid monocholine ester], the IC50 was found to be 4 µg/mL (≈ 6.56 µM). As to `CCCCCCCCCCCCCCCCSCC(COP(=O)([O-])OCC[N+](C)(C)C)OCCCCCCCCCC` (stereo not shown) [Example 5, 3-Hexadecylmercapto-2-decyloxypropyl-1-phosphoric acid monocholine ester], the IC50 came to 20 µg/mL (≈ 31.3 µM). For the compound `CCCCCCCCCCCCCCCCOC(COP(=O)([O-])OCC[N+](C)(C)C)CSCCCCCCCCCC` (stereo not shown) [Example 6, 3-Decylmercapto-2-hexadecyloxypropyl-1-phosphoric acid monocholine ester], the IC50 was 50 µg/mL (≈ 78.4 µM). For `CCCCCCCCCCCCS(=O)(=O)CC(COP(=O)([O-])OCC[N+](C)(C)C)OCCCCCCCCCC` (stereo not shown) [Example 8, 3-Dodecylsulphonyl-2-decyloxypropyl-1-phosphoric acid monocholine ester], the IC50 stood at 2 µg/mL (≈ 3.26 µM). `CCCCCCCCCCCCOC(COP(=O)([O-])OCC[N+](C)(C)C)CS(=O)(=O)CCCCCCCCCC` (stereo not shown) [Example 9, 3-Decylsulphonyl-2-dodecyloxypropyl-1-phosphoric acid monocholine ester]: the IC50 is 2 µg/mL (≈ 3.26 µM). On the same count and under the same terms, next, `CCCCCCCCCCCSCC(COP(=O)([O-])OCC[N+](C)(C)C)OCCCCCCCCCC` (stereo not shown) [Example 11, 3-Undecylmercapto-2-decyloxypropyl-1-phosphoric acid monocholine ester]: 20 µg/mL (≈ 35.2 µM); `CCCCCCCCCCCCCCSCC(COP(=O)([O-])OCC[N+](C)(C)C)OCCCCCCCCCC` (stereo not shown) [Example 13, 3-Tetradecylmercapto-2-decyloxypropyl-1-phosphoric acid monocholine ester]: 4 µg/mL (≈ 6.56 µM); `CCCCCCCCCCCCSCC(CSCCCCCCCCCCCC)OP(=O)([O-])OCC[N+](C)(C)C` [Example 20, 1,3-Bis-(dodecylmercapto)-propyl-1-phosphoric acid monocholine ester]: 4 µg/mL (≈ 6.39 µM). As for `CCCCCCCCCCCCSCC(COP(=O)([O-])OCC[N+](C)(C)C)NC(=O)CCCCCCCCCC` (stereo not shown) [Example 21, 3-Dodecylmercapto-2-decylcarbonylaminopropyl-1-phosphoric acid monocholine ester], the IC50 stood at 5 µg/mL (≈ 8.21 µM). Still for that read-out and setting: next, `CCCCCCCCCCCC[S+]([O-])CC(COP(=O)([O-])OCC[N+](C)(C)C)OCCCCCCCCCC` (stereo not shown) [Example 22, 3-Dodecylsulphinyl-2-decyloxypropyl-1-phosphoric acid monocholine ester]: 4 µg/mL (≈ 6.69 µM); `CCCCCCCCCCCOC(COP(=O)([O-])OCC[N+](C)(C)C)C[S+]([O-])CCCCCCCCCCC` (stereo not shown) [Example 24, 3-Undecylsulphinyl-2-undecyloxypropyl-1-phosphoric acid monocholine ester]: 4 µg/mL (≈ 6.69 µM); `CCCCCCCCCCCCC[S+]([O-])CC(COP(=O)([O-])OCC[N+](C)(C)C)OCCCCCCCCCC` (stereo not shown) [Example 25, 3-Tridecylsulphinyl-2-decyloxypropyl-1-phosphoric acid monocholine ester]: 2 µg/mL (≈ 3.27 µM).

Test system in a further series: not given
Test: not given
As to conditions: M. S. Hirsch, J. Infect. Dis., 157, 427-431/1988; cited from earlier work.
As for `Cc1cn([C@H]2C[C@H](N=[N+]=[N-])[C@@H](CO)O2)c(=O)[nH]c1=O` [AZT, 3'-azido-3'deoxythymidine], the “toxicities in the therapeutic range” value was “very severe toxicities occurring even in the therapeutic range”.
